Test system: control human primary myoblasts
Assay: Expression microarray of primary myoblasts transduced with lentivirus carrying DUX4-fl, DUX4-s or GFP
Experimental: Primary human myoblasts were collected and cultured as previously described (Snider et al., 2010). Primary myoblasts were maintained at or below 70% confluency for proliferation. For differentiation, cells were allowed to reach 95-100% confluency in growth medium. Once confluency was reached, the cells were changed to differentiation medium (F10 media supplemented with 1% horse serum, 10 μg/mL insulin, and 10 μg/mL transferrin, penicillin/streptomycin) and maintained for 4 days. Human RD cells were grown in DMEM in 10% bovine calf serum (Hyclone) and penicillin/streptomycin. The primary myoblasts were transduced with lentivirus carrying DUX-fl, DUX4- or GFP (MOI=15).
Expression microarrays were performed on the transduced cells at 24 hours after transduction as follows. […] Samples were analyzed by Illumina Human Whole Genome microarrays. Probe intensities were corrected, normalized, and summarized by the Lumi package of Bioconductor (Du et al., 2008). Differentially expressed genes were identified by the LIMMA package of Bioconductor (Wettenhall and Smyth, 2004). Gene set enrichment analysis (GSEA) was performed using the Bioconductor GOstats package (Falcon and Gentleman, 2007).

[1] = 3-fold criteria (>1.584 log2-fold change and FDR<0.01)

DUX4-fl: full-length DUX4 protein (SEQ ID NO:110), expressed from lentiviral or pCS2 vectors or in vitro translated
number of genes with increased expression: 1071 genes | number of genes with decreased expression (2-fold change and FDR<0.01 vs lenti-GFP, 24 hours after transduction): 837 genes | number of genes decreased [1]: 244 genes | number of genes increased [1]: 466 genes | BQ437417 (no symbol given) expression fc (Refseq BQ437417, cultured human skeletal muscle): −2.514 | fc of ACVRL1 (expression array) (Refseq NM_000020.1): −1.01 | fc of C3 (expression array) (Refseq NM_000064.1): −1 | CA2 expression fc (Refseq NM_000067.1): 6.091 | fc of COL1A1 (expression array) (Refseq NM_000088.3): −0.2992 | CST3 fc (Refseq NM_000099.2): −1.131 | ENG fc (Refseq NM_000118.1): −1.105 | fc of GAMT (expression array) (Refseq NM_000156.4): −1.021 | GBE1 fc (Refseq NM_000158.2): −1.129 | fc of IDS (expression array) (Refseq NM_000202.3): −1.025 | KCNA1 expression fc (Refseq NM_000217.2): 1.832 | SGCG expression fc (Refseq NM_000231.1): 1.863 | NP expression fc (Refseq NM_000270.1): 6.961 | fc of PTEN (expression array) (Refseq NM_000314.4): −1.031 | SLC3A1 expression fc (Refseq NM_000341.2): 2.736 | SOX9 expression fc (Refseq NM_000346.2): 3.099 | fc of PAFAH1B1 (expression array) (Refseq NM_000430.2): −0.3583 | HBA2 expression fc (Refseq NM_000517.3): 4.721 | fc of HBB (expression array) (Refseq NM_000518.4): −0.354 | HBA1 expression fc (Refseq NM_000558.3): 4.787 | IL8 expression fc (Refseq NM_000584.2, cultured human skeletal muscle): −3.885 | fc of IL15 (expression array) (Refseq NM_000585.2): −1.013 | TAP1 expression fc (Refseq NM_000593.5, cultured human skeletal muscle): −3.265 | fc of IL6 (expression array) (Refseq NM_000600.1): −0.8024 | IL10RB fc (Refseq NM_000628.3): −1.108 | fc of ALDH2 (expression array) (Refseq NM_000690.2): −1.011 | fc of ANXA1 (expression array) (Refseq NM_000700.1): −1.001 | fc of CYP2J2 (expression array) (Refseq NM_000775.2): −0.06948 | fc of GAS6 (expression array) (Refseq NM_000820.1): −1.026 | fc of MME (expression array) (Refseq NM_000902.3): −1.046 | P4HB fc (Refseq NM_000918.3): −1.109 | PTGFR fc (Refseq NM_000959.3): −1.089 | TOP2A fc (Refseq NM_001067.2): −1.157 | TYMS fc (Refseq NM_001071.1): −1.125 | VCAM1 expression fc (Refseq NM_001078.2, cultured human skeletal muscle): −3.014 | ALOX15B fc (Refseq NM_001141.2): −1.071 | ANPEP expression fc (Refseq NM_001150.1, cultured human skeletal muscle): −2.118 | ART3 expression fc (Refseq NM_001179.3): 4.363 | CA12 expression fc (Refseq NM_001218.3, cultured human skeletal muscle): −2.629 | fc of CASP4 (expression array) (Refseq NM_001225.3): −1.059 | CD68 fc (Refseq NM_001251.1): −1.091 | CLIC1 fc (Refseq NM_001288.4): −1.083 | CXADR expression fc (Refseq NM_001338.3): 2.494 | DPYSL2 fc (Refseq NM_001386.4): −1.1 | EMP3 fc (Refseq NM_001425.1): −1.139 | FLT3LG fc (Refseq NM_001459.2): −1.065 | CXCL1 expression fc (Refseq NM_001511.1, cultured human skeletal muscle): −3.523 | fc of HAS1 (expression array) (Refseq NM_001523.1): −1.063 | PRMT2 fc (Refseq NM_001535.2): −1.119 | NDST1 fc (Refseq NM_001543.3): −1.069 | IFIT2 expression fc (Refseq NM_001547.4, cultured human skeletal muscle): −4.315 | IFIT1 expression fc (Refseq NM_001548.3, cultured human skeletal muscle): −4.379 | IFIT3 expression fc (Refseq NM_001549.2, cultured human skeletal muscle): −3.857 | IFRD1 expression fc (Refseq NM_001550.2): 2.99 | IGFBP4 expression fc (Refseq NM_001552.2, cultured human skeletal muscle): −1.937 | fc of CXCL10 (expression array) (Refseq NM_001565.2): −0.8766 | AARS fc (Refseq NM_001605.2): −1.067 | ACP2 fc (Refseq NM_001610.1): −1.126 | TRIM23 expression fc (Refseq NM_001656.3): 2.235 | ARSD fc (Refseq NM_001669.2): −1.079 | fc of AUH (expression array) (Refseq NM_001698.1): −1.06 | CFB expression fc (Refseq NM_001710.4, cultured human skeletal muscle): −5.623 | C1R expression fc (Refseq NM_001733.4, cultured human skeletal muscle): −2.829 | CAV1 fc (Refseq NM_001753.3): −1.097 | fc of RUNX1 (expression array) (Refseq NM_001754.3): −0.2108 | fc of CCND2 (expression array) (Refseq NM_001759.2): −1.057 | CD9 expression fc (Refseq NM_001769.2): 1.992 | CDH11 fc (Refseq NM_001797.2): −1.174 | HBEGF expression fc (Refseq NM_001945.1): 3.868 | ECGF1 expression fc (Refseq NM_001953.2, cultured human skeletal muscle): −4.299 | EGR1 expression fc (Refseq NM_001964.2): 3.749 | ETV6 fc (Refseq NM_001987.4): −1.1 | EYA3 expression fc (Refseq NM_001990.2): 2.572 | fc of ACSL1 (expression array) (Refseq NM_001995.2): −1.015 | FES fc (Refseq NM_002005.2): −1.108 | FTH1 expression fc (Refseq NM_002032.2, cultured human skeletal muscle): −2.029 | GTF2F1 expression fc (Refseq NM_002096.1): 3.208 | HLA-A fc (Refseq NM_002116.5): −1.08 | HMOX1 expression fc (Refseq NM_002133.1, cultured human skeletal muscle): −1.924 | HOXB2 expression fc (Refseq NM_002145.3): 2.202 | HSPA6 expression fc (Refseq NM_002155.3): 1.994 | ID2 expression fc (Refseq NM_002166.4): 2.336 | fc of IFNB1 (expression array) (Refseq NM_002176.2): −0.3894 | INSM1 expression fc (Refseq NM_002196.2): 1.801 | IRF1 expression fc (Refseq NM_002198.1, cultured human skeletal muscle): −2.643 | ISG20 expression fc (Refseq NM_002201.4, cultured human skeletal muscle): −2.94 | fc of ITGA3 (expression array) (Refseq NM_002204.1): −1.041 | fc of JUNB (expression array) (Refseq NM_002229.2): −1.063 | JUP expression fc (Refseq NM_002230.1): 3.172 | KPNA2 expression fc (Refseq NM_002266.2): 2.416 | fc of LAMC1 (expression array) (Refseq NM_002293.2): −0.5108 | fc of LSS (expression array) (Refseq NM_002340.3): −1.045 | LTBR fc (Refseq NM_002342.1): −1.155 | LUM fc (Refseq NM_002345.3): −1.126 | LY6E expression fc (Refseq NM_002346.1, cultured human skeletal muscle): −3.251 | fc of MDM2 (expression array) (Refseq NM_002392.2): −0.588 | MX1 expression fc (Refseq NM_002462.2, cultured human skeletal muscle): −5.675 | MX2 expression fc (Refseq NM_002463.1, cultured human skeletal muscle): −4.066 | fc of MYF6 (expression array) (Refseq NM_002469.1): −1.042 | MYOD1 fc (Refseq NM_002478.4): −1.113 | NFYA expression fc (Refseq NM_002505.3): 2.335 | OAS2 expression fc (Refseq NM_002535.2, cultured human skeletal muscle): −2.711 | ODC1 expression fc (Refseq NM_002539.1): 3.657 | PDE4B fc (Refseq NM_002600.3): −1.143 | PFKP fc (Refseq NM_002627.3): −1.106 | PIM1 expression fc (Refseq NM_002648.2): 2.215 | EXOSC10 expression fc (Refseq NM_002685.2): 1.937 | PNN expression fc (Refseq NM_002687.3): 1.949 | PRKD1 fc (Refseq NM_002742.2): −1.099 | PSMB9 expression fc (Refseq NM_002800.4, cultured human skeletal muscle): −3.137 | PTX3 expression fc (Refseq NM_002852.2, cultured human skeletal muscle): −2.744 | PYGB expression fc (Refseq NM_002862.3, cultured human skeletal muscle): −2.046 | fc of RAB13 (expression array) (Refseq NM_002870.2): −1.032 | fc of RBMS1 (expression array) (Refseq NM_002897.3): −0.6159 | fc of RBMS2 (expression array) (Refseq NM_002898.2): −0.772 | RXRA fc (Refseq NM_002957.3): −1.132 | CCL2 expression fc (Refseq NM_002982.3, cultured human skeletal muscle): −2.681 | CCL5 expression fc (Refseq NM_002985.2, cultured human skeletal muscle): −2.528 | CXCL6 expression fc (Refseq NM_002993.2, cultured human skeletal muscle): −1.994 | CXCL5 expression fc (Refseq NM_002994.3, cultured human skeletal muscle): −2.469 | SLC2A5 expression fc (Refseq NM_003039.1, cultured human skeletal muscle): −1.958 | SLC22A4 fc (Refseq NM_003059.2): −1.134 | SNAI2 expression fc (Refseq NM_003068.3, cultured human skeletal muscle): −2.095 | fc of SMARCD3 (expression array) (Refseq NM_003078.3): −1.022 | SNRNP70 expression fc (Refseq NM_003089.4): 1.885 | SOX4 expression fc (Refseq NM_003107.2): 1.809 | SPG7 fc (Refseq NM_003119.2): −1.113 | SRP19 expression fc (Refseq NM_003135.1): 1.866 | fc of STRN (expression array) (Refseq NM_003162.2): −0.2348 | THBS1 fc (Refseq NM_003246.2): −1.092 | UBA7 expression fc (Refseq NM_003335.2, cultured human skeletal muscle): −2.561 | fc of UGCG (expression array) (Refseq NM_003358.1): −0.8891 | WEE1 fc (Refseq NM_003390.2): −1.099 | WNT5A fc (Refseq NM_003392.3): −1.103 | fc of XPO1 (expression array) (Refseq NM_003400.3): −1.04 | fc of ZFP36 (expression array) (Refseq NM_003407.2): −1.044 | ZKSCAN1 fc (Refseq NM_003439.1): −1.082 | fc of Cxorfl2 (expression array) (Refseq NM_003492.1): −1.02 | fc of TAGLN2 (expression array) (Refseq NM_003564.1): −1.002 | fc of EEA1 (expression array) (Refseq NM_003566.2): −0.963 | IFITM1 expression fc (Refseq NM_003641.3, cultured human skeletal muscle): −6.118 | fc of VAMP8 (expression array) (Refseq NM_003761.2): −1.02 | fc of VAMP4 (expression array) (Refseq NM_003762.3): −1.018 | RNGTT expression fc (Refseq NM_003800.3): 2.018 | RIPK1 fc (Refseq NM_003804.3): −1.103 | TNFSF10 fc (Refseq NM_003810.2): −1.127 | TNFRSF14 expression fc (Refseq NM_003820.2, cultured human skeletal muscle): −2.72 | fc of RIOK3 (expression array) (Refseq NM_003831.2): −0.5229 | TNFRSF10A fc (Refseq NM_003844.2): −1.126 | PEX11B fc (Refseq NM_003846.1): −1.142 | CES2 expression fc (Refseq NM_003869.4, cultured human skeletal muscle): −2.043 | CFLAR expression fc (Refseq NM_003879.3, cultured human skeletal muscle): −1.94 | fc of ASAP2 (expression array) (Refseq NM_003887.2): −1.028 | CCNA1 expression fc (Refseq NM_003914.2): 7.526 | fc of USP13 (expression array) (Refseq NM_003940.2): −0.08799 | NPR2 fc (Refseq NM_003995.3): −1.166 | fc of OSMR (expression array) (Refseq NM_003999.1): −0.7417
